Assay results as given in patent US20070122422A1, “Sodium-independent small neutral amino acid transporter transporting L- and D- amino acids” (Japan Science and Technology Corporation, priority 2000, published 2007).
Entries after “also recorded” stand apart in the source; their conditions may differ.

What was measured:
Assay type in all cases: cell-based
[1] = biological target: T1, intracellular substrate-binding site of asc-1 of mouse (Mus musculus, UniProt P63115); test: Release of injected 14C-amino acid from oocytes co-expressing asc-1 and 4F2hc on extracellular alanine; details: alanine 100 μM added to Na+-free uptake solution
T1 construct: expressed in transfected cells; host or cells: Xenopus oocytes injected with cRNA
T1 sequence (P63115 1-530): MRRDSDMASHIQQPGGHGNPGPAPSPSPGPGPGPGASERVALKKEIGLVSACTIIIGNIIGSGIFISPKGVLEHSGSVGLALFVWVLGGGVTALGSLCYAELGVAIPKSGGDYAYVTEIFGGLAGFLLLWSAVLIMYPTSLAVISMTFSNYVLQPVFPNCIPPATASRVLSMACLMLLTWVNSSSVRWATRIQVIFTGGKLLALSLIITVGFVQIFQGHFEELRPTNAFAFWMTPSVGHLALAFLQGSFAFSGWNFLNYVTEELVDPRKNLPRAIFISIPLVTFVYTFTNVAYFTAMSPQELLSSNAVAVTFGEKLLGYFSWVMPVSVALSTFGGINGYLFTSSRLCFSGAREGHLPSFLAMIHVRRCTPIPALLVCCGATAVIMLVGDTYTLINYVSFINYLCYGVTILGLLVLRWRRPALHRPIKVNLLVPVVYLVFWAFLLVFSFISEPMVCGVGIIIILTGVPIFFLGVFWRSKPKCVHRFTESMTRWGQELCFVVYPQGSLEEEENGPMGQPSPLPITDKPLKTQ
T1 sequence (P10852 1-526 partner): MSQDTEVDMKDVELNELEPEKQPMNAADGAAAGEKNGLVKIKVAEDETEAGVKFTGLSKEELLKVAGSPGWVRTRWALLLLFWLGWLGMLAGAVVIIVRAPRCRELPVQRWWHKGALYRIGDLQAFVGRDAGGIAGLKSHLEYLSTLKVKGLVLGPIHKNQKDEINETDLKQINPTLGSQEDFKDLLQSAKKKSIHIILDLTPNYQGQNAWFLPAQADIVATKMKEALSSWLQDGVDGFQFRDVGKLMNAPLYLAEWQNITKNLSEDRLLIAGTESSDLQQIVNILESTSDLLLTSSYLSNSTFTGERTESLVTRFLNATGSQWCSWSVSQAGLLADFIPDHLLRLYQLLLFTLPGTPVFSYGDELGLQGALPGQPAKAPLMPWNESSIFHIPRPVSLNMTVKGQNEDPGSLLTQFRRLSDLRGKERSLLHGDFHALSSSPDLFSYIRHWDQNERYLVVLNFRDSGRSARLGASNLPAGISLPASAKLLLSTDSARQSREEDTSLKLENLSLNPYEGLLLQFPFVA
Description: In oocytes into which cRNA of asc-1 gene and cRNA of 4F2hc gene of mouse were injected together, release of preloaded ^14C-amino acid mediated by asc-1 was checked whereby the substrate selectivity of intracellular substrate-binding site of asc-1 was checked.
(§1) ^14C-Amino acid (˜3nCi) of 100 μM in an amount of 100 nl was injected into the oocytes into which both asc-1 gene cRNA and 4F2hc gene cRNA of mouse were injected together, washed with an ice-cooled Na^+-free uptake solution containing no alanine and transferred to a Na^+-free uptake solution to which alanine (100 μM) was added or not added at room temperature (18° C.-22° C.) and the amount of ^14C-amino acid released outside the cells was measured.
Black bars in FIG. 21 show the case where alanine was added to a Na^+-free uptake solution while bars with oblique lines show the case where alanine was not added to a Na^+-free uptake solution.

[2] = biological target: T2, human asc-1 (co-expressed with human 4F2hc) (Homo sapiens, UniProt Q9NS82); test: Incorporation of 14C-alanine by oocytes co-expressing human asc-1 and human 4F2hc; details: oocytes where both human asc-1 and 4F2hc were expressed together
T2 construct: expressed in transfected cells
T2 sequence (Q9NS82 1-523): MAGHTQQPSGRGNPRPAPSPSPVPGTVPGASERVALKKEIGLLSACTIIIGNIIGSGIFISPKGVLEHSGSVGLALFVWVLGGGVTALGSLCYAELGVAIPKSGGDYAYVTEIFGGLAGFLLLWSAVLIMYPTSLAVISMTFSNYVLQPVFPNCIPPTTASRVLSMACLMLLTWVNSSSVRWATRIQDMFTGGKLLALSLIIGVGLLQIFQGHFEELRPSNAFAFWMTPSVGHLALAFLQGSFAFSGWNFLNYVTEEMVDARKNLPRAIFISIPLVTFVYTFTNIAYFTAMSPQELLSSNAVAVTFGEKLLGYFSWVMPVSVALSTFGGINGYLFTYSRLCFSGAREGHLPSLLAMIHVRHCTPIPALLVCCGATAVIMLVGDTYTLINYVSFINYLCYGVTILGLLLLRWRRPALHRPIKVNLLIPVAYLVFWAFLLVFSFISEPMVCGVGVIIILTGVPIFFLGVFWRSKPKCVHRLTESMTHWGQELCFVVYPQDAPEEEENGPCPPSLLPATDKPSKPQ
Description: Comparison was made between incorporation of ^14C-alanine in the case where human asc-1 gene cRNA was solely expressed in oocytes with that in the case where both human asc-1 gene cRNA and human 4F2hc gene cRNA were expressed in oocytes. Expression was carried out by injection of 12.5 ng of human asc-1 gene cRNA, 12.5 ng of human 4F2hc gene cRNA or 12.5 ng of human asc-1 gene cRNA/12.5 ng of human 4F2hc gene cRNA into oocytes and incubation was conducted for three days. With regard to the oocytes into which human asc-1 gene cRNA, 4F2hc gene cRNA or human asc-1 gene cRNA/4F2hc gene cRNA was injected, an experiment for incorporation of substrate was carried out according to Example 2(1) using alanine as a substrate.

[3] = biological target: T3, asc-1 of mouse (co-expressed with 4F2hc of mouse) (Mus musculus, UniProt P63115); test: Release of preloaded 14C-alanine from oocytes co-expressing asc-1 and 4F2hc on extracellular addition of compound; details: for increase in the release of preloaded 14C-alanine: 100 μM compound added to Na+-free uptake solution, room temperature
T3 construct: expressed in transfected cells; host or cells: Xenopus oocytes injected with cRNA
T3 sequence (P63115 1-530): T1 sequence (P63115 1-530)
T3 sequence (P10852 1-526 partner): T1 sequence (P10852 1-526 partner)
Description: as §1, with “Release of a preloaded ^14C-alanine mediated by asc-1 was checked in the oocytes into which both asc-1 gene cRNA and 4F2hc gene cRNA of mouse were injected together. ^14C-Alanine (−3nCi)” for “^14C-Amino acid (˜3nCi)”, “^14C-alanine” for “^14C-amino acid”
In oocytes into which cRNA of asc-1 gene and cRNA of 4F2hc gene of mouse were injected together, release of preloaded ^14C-alanine mediated by asc-1 was investigated whereupon it was checked whether the compound which inhibited the incorporation of ^14C-alanine mediated by asc-1 was a substrate of asc-1.
as §1, with “^14C-Alanine (−3nCi) of” for “^14C-Amino acid (˜3nCi) of”, “which amino acid or amino acid analog” for “which alanine”, “of ^14C-alanine” for “of ^14C-amino acid”
Black bars in FIG. 18 are the case where there were used oocytes into which cRNA of mouse asc-1 gene and cRNA of mouse 4F2hc gene were injected while white bars are the case where there were used oocytes into which water was injected instead of cRNA as a control.

SMILES	release of injected 14C-labeled amino acid by extracellular alanine [1]	incorporation of alanine [2]	increase in the release of preloaded 14C-alanine [3]	release of 14C-alanine without alanine outside the cells ([3]; alanine not added to Na+-free uptake solution)
C[C@H](N)C(=O)O [L-Alanine]	increase in release	big incorporation	significantly increased; also recorded: high increase	significant release
N[C@@H](CO)C(=O)O [L-Serine]	increase in release		high increase	
